Experimental data published in patent US11738022B2, “Methods for inducing pupil dilation” (THE REGENTS OF THE UNIVERSITY OF COLORADO, A BODY CORPORATE, priority 2017, dated 2023).

Legend:
α receptors (α2:α1) = conditions: affinity ratio; cited from earlier work
pupil = experiment: Pupil dilation measured with Neuroptics pupillometer after α-2 agonist pre-treatment and/or phenylephrine; type: in vivo, human
Procedure: Dilation medication used was Phenylephrine hydrochloride 10% (Akorn, Inc). Pupillometer used was a Neuroptics DP-2000 Binocular Pupillometer).
Dilation using phenylephrine hydrochloride 10% was conducted in both eyes of the test subject to use as a control against the other compounds being tested.
After this, dilation using phenylephrine hydrochloride 2.5% or phenylephrine hydrochloride 10% was conducted to investigate the effects of the compound on pupil dilation.
Apracionidine 0.5% was administered in the right eye of the test subject three (3) times a day for 4 days. After this, dilation using phenylephrine hydrochloride 10% was conducted to investigate the effects of the compound on pupil dilation.
After this, dilation using phenylephrine hydrochloride 10% was conducted to investigate the effects of the compound on pupil dilation.
A washout period of multiple months was undertaken in between each experiment.
Pupil measurements were obtained using a Neuroptics pupillometer. Parameters were as follows: Scotopic conditions for 1 second, followed by photopic conditions for 4 seconds (1258.925 lux), followed by scotopic conditions for 10 seconds. This allowed for investigation of scotopic pupil size, photopic pupil size, and scotopic pupil size recovery after the light stimulus concluded.
The pupils of the subject's pretreated right eye and untreated control left eye were then measured under both scotopic and photopic conditions for baseline measurements (FIG. 6A). Photopic conditions consisted of a 4 second window where a light was shining in both eyes simultaneously. […]
The experiment was repeated at a higher dosage wherein the subject was administered a second ophthalmic formulation containing 10% phenylephrine to both eyes. 30 minutes after instillation of 10% phenylephrine, the pupils of the subject were then measured under both scotopic and photopic conditions (FIG. 6C). […] Because the area of a circle is dependent on the radius squared (area of a circle=πr^2), the increase in area that is created from a increasing the pupil dilation size is not linear.
The results were then compared.

[1] = after pre-treatment of right eye only, 3 times a day for 4 days, before phenylephrine
[2] = after pre-treatment of right eye only, 3 times a day for 4 days, before phenylephrine, left eye not treated
[3] = dilation pre and post treatment with α 2 agonist: treated eye vs control measurements of same eye
[4] = non-treated eye dilation compared to treated eye dilation
[5] = photopic conditions (1258.925 lux) after dilation with phenylephrine 10%
[6] = photopic conditions (1258.925 lux) after dilation with phenylephrine 10%, eye without pre-treatment
[7] = right eye pre-treated 3 times a day for 4 days, then phenylephrine 2.5% both eyes (FIG. 6B)

SMILES: Brc1c(NC2=NCCN2)ccc2nccnc12 [Brimonidine, brimonidine]
- α2:α1 affinity (α receptors (α2:α1)): 976
- dilation speed of pretreated eye vs control eye on return to scotopic conditions (pupil; 30 minutes after 2.5% phenylephrine (FIG. 6B)): more rapidly
- dilation speed of pretreated eye vs control eye upon removal of the light (pupil; 30 minutes after 10% phenylephrine (FIG. 6C)): more rapidly
- average increase in dilation size in the pretreated eye compared to the control eye (pupil; 30 minutes after 10% phenylephrine both eyes (FIG. 6C)): 36%
- dilation speed of pretreated eye upon return to scotopic conditions (pupil; after 4 days pre-treatment, before phenylephrine (FIG. 6A)): much more slowly
- increase of surgical work area compared to the pre-treatment control dilation amount in the same eye (pupil; after dilation with phenylephrine hydrochloride 10%): approximately 103%
- CH LStim Ave (pupil; [1]): 69%
- CH RPupil Ave (pupil; [1]): 67%
- CH RStim Ave (pupil; [1]): 69%
- CH Right (pupil; [1]): 67%
- CLAT LStim Ave (pupil; [1]): 0.17 s
- CLAT RPupil Ave (pupil; [1]): 0.18 s
- CLAT RStim Ave (pupil; [1]): 0.17 s
- CLAT Right (pupil; [1]): 0.18 s
- DELTA LStim Ave (pupil; [1]): 4.70 mm
- DELTA RPupil Ave (pupil; [1]): 4.21 mm
- DELTA RStim Ave (pupil; [1]): 4.70 mm
- DV LStim Ave (pupil; [1]): 1.02 mm/s
- DV RPupil Ave (pupil; [1]): 1.00 mm/s
- DV RStim Ave (pupil; [1]): 1.02 mm/s
- DV Right (pupil; [1]): 1.00 mm/s
- MCV LStim Ave (pupil; [1]): 6.57 mm/s
- MCV RPupil Ave (pupil; [1]): 6.76 mm/s
- MCV RStim Ave (pupil; [1]): 6.57 mm/s
- Max LStim Ave (pupil; [1]): 6.86 mm
- Max RStim Ave (pupil; [1]): 6.86 mm
- Max Right (pupil; [1]): 6.27 mm
- Min LStim Ave (pupil; [1]): 2.16 mm
- Min RPupil Ave (pupil; [1]): 2.06 mm
- Min RStim Ave (pupil; [1]): 2.16 mm
- Min Right (pupil; [1]): 2.06 mm
- CH LPupil Ave (pupil; [2]): 70%
- CH Left (pupil; [2]): 70%
- CLAT LPupil Ave (pupil; [2]): 0.17 s
- CLAT Left (pupil; [2]): 0.17 s
- DELTA Left (pupil; [2]): 5.21 mm
- DV Left (pupil; [2]): 1.05 mm/s
- MCV Left (pupil; [2]): 6.38 mm/s
- Max Left (pupil; [2]): 7.46 mm
- Min Left (pupil; [2]): 2.25 mm
- Pupil size change (%) (pupil; [3]): +42.62%
- Surgical work area change (%) (pupil; [3]): +103.4%
- Pupil size change (%) (pupil; [4]): +35.81%
- Surgical work area (%) (pupil; [4]): +84.44%
- Pupil size, Treated eye (pupil; [5]): 5.12 mm
- Surgical Work area, Treated eye (pupil; [5]): 20.58 mm^2
- Pupil size, Non-treated eye (pupil; [6]): 3.77 mm
- Surgical Work area, Non-treated eye (pupil; [6]): 11.16 mm^2
- dilation of pretreated eye vs control eye (pupil; photopic conditions, 30 minutes after 2.5% phenylephrine (FIG. 6B)): more dilated
- dilation of pretreated eye vs control eye (pupil; photopic conditions, 30 minutes after 10% phenylephrine (FIG. 6C)): much more dilated
- pupil area, pre-treated eye (pupil; photopic conditions, after 10% phenylephrine (FIG. 6C)): 20.59 mm^2
- pupil area, control eye (pupil; photopic conditions, after 10% phenylephrine (FIG. 6C), eye without pre-treatment): 11.16 mm^2
- increase in surgical workspace (pupil; pre-treated vs control eye, photopic conditions, after 10% phenylephrine): ~85%
- CH LStim Ave (pupil; [7]): 64%
- CH RPupil Ave (pupil; [7]): 61%
- CH RStim Ave (pupil; [7]): 64%
- CH Right (pupil; [7]): 61%
- CLAT LStim Ave (pupil; [7]): 0.19 s
- CLAT RPupil Ave (pupil; [7]): 0.19 s
- CLAT RStim Ave (pupil; [7]): 0.19 s
- CLAT Right (pupil; [7]): 0.19 s
- DELTA LStim Ave (pupil; [7]): 4.98 mm
